Source: ChEMBL document CHEMBL3792365, “Dioxol and dihydrodioxin analogs of 2- and 3-phenylacetonitriles as potent anti-cancer agents with nanomolar activity against a variety of human cancer cells” (2016)

What was measured:
Assay type in all cases: functional
[1] = test system: NCI-H226; test: Growth inhibition of human NCI-H226 cells at 10 uM after 48 hrs by sulforhodamine B assay; conditions: NCI-H226, 48 h, values are per cent of control
[2] = test system: NCI-H460; test: Growth inhibition of human NCI-H460 cells at 10 uM after 48 hrs by sulforhodamine B assay; conditions: NCI-H460, 48 h, values are per cent of control
[3] = Growth inhibition of human Caki1 cells at 10 uM after 48 hrs by sulforhodamine B assay; conditions: CAKI-1, 48 h, values are per cent of control
[4] = Growth inhibition of human BT549 cells at 10 uM after 48 hrs by sulforhodamine B assay; conditions: BT-549, 48 h, values are per cent of control
[5] = Growth inhibition of human HOP62 cells at 10 uM after 48 hrs by sulforhodamine B assay; conditions: HOP-62, 48 h, values are per cent of control
[6] = Growth inhibition of human COLO205 cells at 10 uM after 48 hrs by sulforhodamine B assay; conditions: COLO 205, 48 h, values are per cent of control
[7] = test system: K562; test: Growth inhibition of human K562 cells at 10 uM after 48 hrs by sulforhodamine B assay; conditions: K562, 48 h, values are per cent of control
[8] = test system: MDA-MB-435; test: Growth inhibition of human MDA-MB-435 cells at 10 uM after 48 hrs by sulforhodamine B assay; conditions: MDA-MB-435, 48 h, values are per cent of control
[9] = Growth inhibition of human Hs 578T cells at 10 uM after 48 hrs by sulforhodamine B assay; conditions: values are per cent of control
[10] = Growth inhibition of human SNB75 cells at 10 uM after 48 hrs by sulforhodamine B assay; conditions: SNB-75, 48 h, values are per cent of control
[11] = test system: A549; test: Growth inhibition of human A549/ATCC cells at 10 uM after 48 hrs by sulforhodamine B assay; conditions: A549, 48 h, values are per cent of control
[12] = test system: SN12C; test: Growth inhibition of human SN12C cells at 10 uM after 48 hrs by sulforhodamine B assay; conditions: values are per cent of control
[13] = test system: SK-MEL-2; test: Growth inhibition of human SK-MEL-2 cells at 10 uM after 48 hrs by sulforhodamine B assay; conditions: SK-MEL-2, 48 h, values are per cent of control
[14] = Growth inhibition of human SF539 cells at 10 uM after 48 hrs by sulforhodamine B assay; conditions: SF-539, 48 h, values are per cent of control
[15] = test system: KM12; test: Growth inhibition of human KM12 cells at 10 uM after 48 hrs by sulforhodamine B assay; conditions: KM12, 48 h, values are per cent of control
[16] = test system: MDA-MB-231; test: Growth inhibition of human MDA-MB-231 cells at 10 uM after 48 hrs by sulforhodamine B assay; conditions: MDA-MB-231, 48 h, values are per cent of control
[17] = test system: A498; test: Growth inhibition of human A498 cells at 10 uM after 48 hrs by sulforhodamine B assay; conditions: A498, 48 h, values are per cent of control
[18] = test system: HT-29; test: Growth inhibition of human HT-29 cells at 10 uM after 48 hrs by sulforhodamine B assay; conditions: HT-29, 48 h, values are per cent of control
[19] = Growth inhibition of human HCT116 cells at 10 uM after 48 hrs by sulforhodamine B assay; conditions: HCT-116, 48 h, values are per cent of control
[20] = Growth inhibition of human TK10 cells at 10 uM after 48 hrs by sulforhodamine B assay; conditions: TK-10, 48 h, values are per cent of control
[21] = Growth inhibition of human SF268 cells at 10 uM after 48 hrs by sulforhodamine B assay; conditions: SF-268, 48 h, values are per cent of control
[22] = Growth inhibition of human UACC62 cells at 10 uM after 48 hrs by sulforhodamine B assay; conditions: UACC-62, 48 h, values are per cent of control
[23] = test system: SK-MEL-28; test: Growth inhibition of human SK-MEL-28 cells at 10 uM after 48 hrs by sulforhodamine B assay; conditions: SK-MEL-28, 48 h, values are per cent of control
[24] = test system: NCI-H322M; test: Growth inhibition of human NCI-H322M cells at 10 uM after 48 hrs by sulforhodamine B assay; conditions: values are per cent of control
[25] = test system: NCI-H522; test: Growth inhibition of human NCI-H522 cells at 10 uM after 48 hrs by sulforhodamine B assay; conditions: NCI-H522, 48 h, values are per cent of control
[26] = test system: U-251; test: Growth inhibition of human U251 cells at 10 uM after 48 hrs by sulforhodamine B assay; conditions: U-251, 48 h, values are per cent of control
[27] = Growth inhibition of human SW620 cells at 10 uM after 48 hrs by sulforhodamine B assay; conditions: SW-620, 48 h, values are per cent of control
[28] = test system: MDA-MB-468; test: Growth inhibition of human MDA-MB-468 cells at 10 uM after 48 hrs by sulforhodamine B assay; conditions: MDA-MB-468, 48 h, values are per cent of control
[29] = Growth inhibition of human DU145 cells at 10 uM after 48 hrs by sulforhodamine B assay; conditions: DU-145, 48 h, values are per cent of control
[30] = test system: NCI-H23; test: Growth inhibition of human NCI-H23 cells at 10 uM after 48 hrs by sulforhodamine B assay; conditions: NCI-H23, 48 h, values are per cent of control
[31] = Growth inhibition of human SNB19 cells at 10 uM after 48 hrs by sulforhodamine B assay; conditions: SNB-19, 48 h, values are per cent of control
[32] = Growth inhibition of human SF295 cells at 10 uM after 48 hrs by sulforhodamine B assay; conditions: SF-295, 48 h, values are per cent of control
[33] = Growth inhibition of human UO31 cells at 10 uM after 48 hrs by sulforhodamine B assay; conditions: UO-31, 48 h, values are per cent of control
[34] = Growth inhibition of human HCC2998 cells at 10 uM after 48 hrs by sulforhodamine B assay; conditions: HCC 2998, 48 h, values are per cent of control
[35] = test system: M14; test: Growth inhibition of human M14 cells at 10 uM after 48 hrs by sulforhodamine B assay; conditions: M14, 48 h, values are per cent of control
[36] = Growth inhibition of human OVCAR5 cells at 10 uM after 48 hrs by sulforhodamine B assay; conditions: OVCAR-5, 48 h, values are per cent of control
[37] = test system: T47D; test: Growth inhibition of human T47D cells at 10 uM after 48 hrs by sulforhodamine B assay; conditions: values are per cent of control
[38] = Growth inhibition of human OVCAR4 cells at 10 uM after 48 hrs by sulforhodamine B assay; conditions: OVCAR-4, 48 h, values are per cent of control
[39] = Growth inhibition of human IGROV1 cells at 10 uM after 48 hrs by sulforhodamine B assay; conditions: IGROV-1, 48 h, values are per cent of control
[40] = Growth inhibition of human LOXIMVI cells at 10 uM after 48 hrs by sulforhodamine B assay; conditions: LOX IMVI, values are per cent of control

Row | SMILES | growth, % of control at 10 µM [1] | growth, % of control at 10 µM [2] | growth, % of control at 10 µM [3] | growth, % of control at 10 µM [4] | growth, % of control at 10 µM [5] | growth, % of control at 10 µM [6] | growth, % of control at 10 µM [7] | growth, % of control at 10 µM [8] | growth, % of control at 10 µM [9] | growth, % of control at 10 µM [10] | growth, % of control at 10 µM [11] | growth, % of control at 10 µM [12] | growth, % of control at 10 µM [13] | growth, % of control at 10 µM [14] | growth, % of control at 10 µM [15] | growth, % of control at 10 µM [16] | growth, % of control at 10 µM [17] | growth, % of control at 10 µM [18] | growth, % of control at 10 µM [19] | growth, % of control at 10 µM [20] | also measured
1 | N#C/C(=C\c1c(Cl)cccc1Cl)c1ccc2c(c1)OCO2 | 111% | 102% | 83.2% | 100% | 90.6% | 99.6% | 77.5% | 63.5% | 101% | 51.5% | 79.9% | 95.9% | 90.6% | 97.9% | 95.2% | 95.8% | 82.7% | 93.7% | 89.7% | 81% | growth, % of control at 10 µM [21]: 102%; growth, % of control at 10 µM [22]: 86.4%; growth, % of control at 10 µM [23]: 104%; growth, % of control at 10 µM [24]: 102%; growth, % of control at 10 µM [25]: 65.4%; growth, % of control at 10 µM [26]: 89%; growth, % of control at 10 µM [27]: 99.9%; growth, % of control at 10 µM [28]: 84.9%; growth, % of control at 10 µM [29]: 99.3%; growth, % of control at 10 µM [30]: 93.7%; growth, % of control at 10 µM [31]: 106%; growth, % of control at 10 µM [32]: 95.6%; growth, % of control at 10 µM [33]: 80.1%; growth, % of control at 10 µM [34]: 89.9%; growth, % of control at 10 µM [35]: 89.7%; growth, % of control at 10 µM [36]: 103%; growth, % of control at 10 µM [37]: 83.8%; growth, % of control at 10 µM [38]: 79.9%; growth, % of control at 10 µM [39]: 85.6%; growth, % of control at 10 µM [40]: 98.9%
2 | N#C/C(=C\c1ccc2c(c1)OCO2)c1ccc2c(c1)OCO2 | 94.9% | 83.6% | 66.8% | 49.6% | 76.7% | 59.8% | 24.9% | -5.7% | 89.7% | 94.3% | 59.5% | 90.7% | 63.5% | 79.4% | 42.2% | 66.8% | 73.7% | 39.6% | 57.5% | 91% | growth, % of control at 10 µM [21]: 81.2%; growth, % of control at 10 µM [22]: 69.4%; growth, % of control at 10 µM [23]: 88.5%; growth, % of control at 10 µM [24]: 106%; growth, % of control at 10 µM [25]: 76.4%; growth, % of control at 10 µM [26]: 77.2%; growth, % of control at 10 µM [27]: 42.9%; growth, % of control at 10 µM [28]: 54.9%; growth, % of control at 10 µM [29]: 92.5%; growth, % of control at 10 µM [30]: 83.2%; growth, % of control at 10 µM [31]: 95.9%; growth, % of control at 10 µM [32]: 76.5%; growth, % of control at 10 µM [33]: 86.7%; growth, % of control at 10 µM [34]: 72.3%; growth, % of control at 10 µM [35]: 50.8%; growth, % of control at 10 µM [36]: 97.9%; growth, % of control at 10 µM [37]: 67.7%; growth, % of control at 10 µM [38]: 89.7%; growth, % of control at 10 µM [39]: 66.1%; growth, % of control at 10 µM [40]: 65.1%
